This passage reports MIC results from ChEMBL document CHEMBL5385944, “Hydrazyl hydroxycoumarins as new potential conquerors towards Pseudomonas aeruginosa” (Bioorg Med Chem Lett, 2024).

What all share (format): functional
Test [1] deals with Staphylococcus aureus. Put plainly: Antibacterial activity against methicillin resistant Staphylococcus aureus assessed as reduction in bacterial growth by CLSI protocol based method.
In test [2] the test system is Staphylococcus aureus. Put plainly: Antibacterial activity against methicillin resistant Staphylococcus aureus 43300 assessed as reduction in bacterial growth by CLSI protocol based method.
The subject of the next test is Enterococcus faecalis. Put plainly: Antibacterial activity against Enterococcus faecalis assessed as reduction in bacterial growth by CLSI protocol based method.
The subject of test [3] is Staphylococcus aureus. Put plainly: Antibacterial activity against Staphylococcus aureus ATCC 25923 assessed as reduction in bacterial growth by CLSI protocol based method.
Test [4] deals with Staphylococcus aureus. Put plainly: Antibacterial activity against Staphylococcus aureus ATCC 29213 assessed as reduction in bacterial growth by CLSI protocol based method.
A further test has as its system Klebsiella pneumoniae. Kind of test: Antibacterial activity against Klebsiella pneumoniae assessed as reduction in bacterial growth by CLSI protocol based method.
In test [5] the test system is Pseudomonas aeruginosa. Put plainly: Antibacterial activity against Pseudomonas aeruginosa assessed as reduction in bacterial growth by CLSI protocol based method.
Test [6] concerns Pseudomonas aeruginosa. Kind of test: Antibacterial activity against Pseudomonas aeruginosa ATCC 27853 assessed as reduction in bacterial growth by CLSI protocol based method.
The test system of test [7] is Pseudomonas aeruginosa. Put plainly: Antibacterial activity against Pseudomonas aeruginosa ATCC 10104 assessed as reduction in bacterial growth by CLSI protocol based method.
In test [8] the test system is Pseudomonas aeruginosa. Put plainly: Antibacterial activity against Pseudomonas aeruginosa ATCC 90027 assessed as reduction in bacterial growth by CLSI protocol based method.
The subject of the next test is Acinetobacter baumannii. Put plainly: Antibacterial activity against Acinetobacter baumannii assessed as reduction in bacterial growth by CLSI protocol based method.
In another test the test system is Escherichia coli. Kind of test: Antibacterial activity against Escherichia coli ATCC 25922 assessed as reduction in bacterial growth by CLSI protocol based method.

Converted amounts (≈) assume the structure as drawn.

For orientation: MIC means the lowest concentration found to suppress growth. For the compound `O=C(N/N=C/c1c(O)ccc2ccc(=O)oc12)c1ccc(Cl)cc1`, the MIC with Staphylococcus aureus [1] amounted to 512 µg/mL (≈ 1490 µM); in the test with Staphylococcus aureus [2] it was 512 µg/mL (≈ 1490 µM); in the test on Enterococcus faecalis, 256 µg/mL (≈ 747 µM); in the test on Staphylococcus aureus [3], 256 µg/mL (≈ 747 µM); in the test on Staphylococcus aureus [4] it was 256 µg/mL (≈ 747 µM); with Klebsiella pneumoniae, 256 µg/mL (≈ 747 µM). Besides, the minimum inhibitory concentration (MIC) with Pseudomonas aeruginosa [5] stood at 256 µg/mL (≈ 747 µM); in the test on Pseudomonas aeruginosa [6], 256 µg/mL (≈ 747 µM); in the test with Pseudomonas aeruginosa [7] it was 32 µg/mL (≈ 93.4 µM); in the test with Pseudomonas aeruginosa [8] it was 256 µg/mL (≈ 747 µM); in the test with Acinetobacter baumannii it was 256 µg/mL (≈ 747 µM); with Escherichia coli it was 256 µg/mL (≈ 747 µM).

`O=C(N/N=C/c1c(O)ccc2ccc(=O)oc12)c1ccc([N+](=O)[O-])cc1`: the MIC in the test on Staphylococcus aureus [1], in the test on Staphylococcus aureus [2], in the test on Enterococcus faecalis, in the test on Staphylococcus aureus [3], in the test on Staphylococcus aureus [4] and with Klebsiella pneumoniae was 512 µg/mL (≈ 1450 µM) throughout. The MIC was determined as 512 µg/mL (≈ 1450 µM) in the test on Pseudomonas aeruginosa [5]; 512 µg/mL (≈ 1450 µM) with Pseudomonas aeruginosa [6]; 512 µg/mL (≈ 1450 µM) with Pseudomonas aeruginosa [7]; 512 µg/mL (≈ 1450 µM) with Pseudomonas aeruginosa [8]; 512 µg/mL (≈ 1450 µM) with Acinetobacter baumannii; 4 µg/mL (≈ 11.3 µM) with Escherichia coli.

Consider `CC(=O)Nc1ccc(S(=O)(=O)N/N=C/c2c(O)ccc3ccc(=O)oc23)cc1`, for which the MIC in the test on Staphylococcus aureus [1], in the test with Staphylococcus aureus [2], with Enterococcus faecalis, in the test on Staphylococcus aureus [3], in the test with Staphylococcus aureus [4] and in the test on Klebsiella pneumoniae was 512 µg/mL (≈ 1280 µM) each time. For the same compound, the MIC in the test with Pseudomonas aeruginosa [5] was 512 µg/mL (≈ 1280 µM); in the test with Pseudomonas aeruginosa [6], 512 µg/mL (≈ 1280 µM); with Pseudomonas aeruginosa [7], 512 µg/mL (≈ 1280 µM); in the test with Pseudomonas aeruginosa [8], 64 µg/mL (≈ 159 µM); in the test with Acinetobacter baumannii it was 128 µg/mL (≈ 319 µM); with Escherichia coli it was 256 µg/mL (≈ 638 µM).

In the case of `O=C(N/N=C/c1c(O)ccc2ccc(=O)oc12)c1ccc(F)cc1`, the MIC in the test on Staphylococcus aureus [1] was 512 µg/mL (≈ 1570 µM); in the test on Staphylococcus aureus [2], 16 µg/mL (≈ 49 µM); with Enterococcus faecalis, 512 µg/mL (≈ 1570 µM); with Staphylococcus aureus [3], 256 µg/mL (≈ 785 µM); in the test with Staphylococcus aureus [4] it was 512 µg/mL (≈ 1570 µM); with Klebsiella pneumoniae, 256 µg/mL (≈ 785 µM). The MIC in the test with Pseudomonas aeruginosa [5] came out at 512 µg/mL (≈ 1570 µM); in the test with Pseudomonas aeruginosa [6], 512 µg/mL (≈ 1570 µM); in the test on Pseudomonas aeruginosa [7], 128 µg/mL (≈ 392 µM); with Pseudomonas aeruginosa [8] it was 512 µg/mL (≈ 1570 µM); with Acinetobacter baumannii, 256 µg/mL (≈ 785 µM); in the test on Escherichia coli, 256 µg/mL (≈ 785 µM).

Consider `Cc1ncc([N+](=O)[O-])n1CC(=O)N/N=C/c1c(O)ccc2ccc(=O)oc12`, for which the MIC in the test with Staphylococcus aureus [1] was 256 µg/mL (≈ 689 µM); in the test on Staphylococcus aureus [2], 128 µg/mL (≈ 345 µM); in the test with Enterococcus faecalis, 32 µg/mL (≈ 86.2 µM); with Staphylococcus aureus [3], 4 µg/mL (≈ 10.8 µM); with Staphylococcus aureus [4], 256 µg/mL (≈ 689 µM); with Klebsiella pneumoniae, 256 µg/mL (≈ 689 µM). The minimal inhibitory concentration (MIC) came to 256 µg/mL (≈ 689 µM) in the test with Pseudomonas aeruginosa [5]; 8 µg/mL (≈ 21.5 µM) in the test with Pseudomonas aeruginosa [6]; 64 µg/mL (≈ 172 µM) in the test with Pseudomonas aeruginosa [7]; 32 µg/mL (≈ 86.2 µM) in the test on Pseudomonas aeruginosa [8]; 256 µg/mL (≈ 689 µM) with Acinetobacter baumannii; 256 µg/mL (≈ 689 µM) in the test with Escherichia coli.

`Nc1ccc(C(=O)N/N=C/c2c(O)ccc3ccc(=O)oc23)cc1`: the minimum inhibitory concentration (MIC) was 512 µg/mL (≈ 1580 µM) in the test on Staphylococcus aureus [1]; 512 µg/mL (≈ 1580 µM) with Staphylococcus aureus [2]; 32 µg/mL (≈ 99 µM) in the test with Enterococcus faecalis; 512 µg/mL (≈ 1580 µM) with Staphylococcus aureus [3]; 512 µg/mL (≈ 1580 µM) in the test on Staphylococcus aureus [4]; 256 µg/mL (≈ 792 µM) in the test with Klebsiella pneumoniae. The minimum inhibitory concentration (MIC) in the test on Pseudomonas aeruginosa [5] was determined as 512 µg/mL (≈ 1580 µM); in the test with Pseudomonas aeruginosa [6], 512 µg/mL (≈ 1580 µM); with Pseudomonas aeruginosa [7], 512 µg/mL (≈ 1580 µM); with Acinetobacter baumannii it was 256 µg/mL (≈ 792 µM); with Escherichia coli, 512 µg/mL (≈ 1580 µM).

Turning to `O=C(N/N=C/c1c(O)ccc2ccc(=O)oc12)c1ccc(O)cc1`, the MIC was 512 µg/mL (≈ 1580 µM) in the test on Staphylococcus aureus [1]; 512 µg/mL (≈ 1580 µM) in the test with Staphylococcus aureus [2]; 512 µg/mL (≈ 1580 µM) in the test on Enterococcus faecalis; 512 µg/mL (≈ 1580 µM) in the test with Staphylococcus aureus [3]; 512 µg/mL (≈ 1580 µM) in the test on Staphylococcus aureus [4]; 256 µg/mL (≈ 789 µM) in the test on Klebsiella pneumoniae. Moreover, the minimal inhibitory concentration (MIC) with Pseudomonas aeruginosa [5], with Pseudomonas aeruginosa [6], in the test on Pseudomonas aeruginosa [7], with Pseudomonas aeruginosa [8], in the test with Acinetobacter baumannii and in the test with Escherichia coli was 512 µg/mL (≈ 1580 µM) throughout.

`O=c1ccc2ccc(O)c(/C=N/NS(=O)(=O)c3ccc(Cl)cc3)c2o1`: the minimal inhibitory concentration (MIC) with Staphylococcus aureus [1] worked out at 512 µg/mL (≈ 1350 µM); in the test with Staphylococcus aureus [2], 512 µg/mL (≈ 1350 µM); with Enterococcus faecalis it was 512 µg/mL (≈ 1350 µM); in the test on Staphylococcus aureus [3] it was 512 µg/mL (≈ 1350 µM); with Staphylococcus aureus [4], 4 µg/mL (≈ 10.6 µM); in the test with Klebsiella pneumoniae, 256 µg/mL (≈ 676 µM). In addition, the MIC was found to be 256 µg/mL (≈ 676 µM) with Pseudomonas aeruginosa [5]; 512 µg/mL (≈ 1350 µM) in the test on Pseudomonas aeruginosa [6]; 512 µg/mL (≈ 1350 µM) in the test with Pseudomonas aeruginosa [7]; 512 µg/mL (≈ 1350 µM) in the test on Pseudomonas aeruginosa [8]; 512 µg/mL (≈ 1350 µM) with Acinetobacter baumannii; 256 µg/mL (≈ 676 µM) in the test on Escherichia coli.

In the case of `O=c1ccc2ccc(O)c(/C=N/NS(=O)(=O)c3cccc4c3OCC4)c2o1`, the MIC with Staphylococcus aureus [1], in the test on Staphylococcus aureus [2], with Enterococcus faecalis, with Staphylococcus aureus [3], in the test with Staphylococcus aureus [4] and with Klebsiella pneumoniae was 512 µg/mL (≈ 1330 µM) each time. Moreover, the minimum inhibitory concentration (MIC) in the test on Pseudomonas aeruginosa [5], in the test on Pseudomonas aeruginosa [6], in the test with Pseudomonas aeruginosa [7], with Pseudomonas aeruginosa [8], in the test with Acinetobacter baumannii and with Escherichia coli was 512 µg/mL (≈ 1330 µM) each time.
